Source: PMC11822212, “High-throughput screening identifies Aurora kinase B as a critical therapeutic target for Merkel cell carcinoma” (Nature Communications, 2025)
“And” between values parts separate entries of the source, which are not always exact repeats. Equal values may be shown once. Where a name gives a salt, the structure may show the parent alone. Read-outs that look alike come from different tables or passages of the source.

Key:
[1] = tested on: VN-MCC cell lines (MCC13, MCC26, UISO); experiment: qHTS cell viability, VN-MCC cell lines as a group (mean AUC, VN.MCC.avg); format: cell-based, human
HEK293T cells = experiment: qHTS cell viability (CellTiter-Glo, 72 h; primary screen), control cell line; format: cell-based, human
[2] = tested on: MCC cell lines (WAGA, MKL-1, MKL-2, MCC13, MCC26, UISO); experiment: qHTS cell viability, all six MCC cell lines as a group (mean AUC, MCC.avg); format: cell-based, human
[3] = tested on: control cell lines (HACAT, HEK293T, CRL-7250, NIH-3T3); experiment: qHTS cell viability, control cell lines as a group (mean AUC, Control.avg); format: cell-based
NIH-3T3 cells = experiment: qHTS cell viability (CellTiter-Glo, 72 h; primary screen), control cell line; format: cell-based, mouse
MKL-1 cells (VP-MCC) = experiment: qHTS cell viability (CellTiter-Glo, 72 h; primary and follow-up small molecule screen); format: cell-based, human
MCC26 cells (VN-MCC) = experiment: as above; format: cell-based, human
UISO cells (VN-MCC) = experiment: as above; format: cell-based, human
HACAT cells = experiment: qHTS cell viability (CellTiter-Glo, 72 h; primary screen), control cell line; format: cell-based, human
MKL-2 cells (VP-MCC) = experiment: qHTS cell viability (CellTiter-Glo, 72 h; primary and follow-up small molecule screen); format: cell-based, human
[4] = tested on: six MCC cell lines and four control cell lines; experiment: qHTS cell viability, all 10 cell lines screened; format: cell-based
CRL-7250 cells = experiment: qHTS cell viability (CellTiter-Glo, 72 h; primary screen), control cell line; format: cell-based
MCC13 cells (VN-MCC) = experiment: qHTS cell viability (CellTiter-Glo, 72 h; primary and follow-up small molecule screen); format: cell-based, human
WAGA cells (VP-MCC) = experiment: as above; format: cell-based, human
[5] = tested on: VP-MCC cell lines (WAGA, MKL-1, MKL-2); experiment: qHTS cell viability, VP-MCC cell lines as a group (mean AUC, VP.MCC.avg); format: cell-based, human
[6] = NPC library, mean AUC of VN-MCC cell lines
[7] = NPC library, therapeutic window: Control avg AUC minus VN-MCC avg AUC
[8] = NPC library, qHTS dose-response AUC, HEK293T control
[9] = NPC library, mean AUC of six MCC cell lines
[10] = NPC library, mean AUC of control cell lines
[11] = NPC library, qHTS dose-response AUC, NIH3T3 control
[12] = NPC library, qHTS dose-response AUC, MKL1
[13] = NPC library, qHTS dose-response AUC, MCC26
[14] = NPC library, qHTS dose-response AUC, UISO
[15] = NPC library, qHTS dose-response AUC, HACAT control
[16] = NPC library, qHTS dose-response AUC, MKL2
[17] = NPC library, therapeutic window: Control avg AUC minus MCC avg AUC
[18] = NPC library, qHTS dose-response AUC, CRL7250 control
[19] = NPC library, qHTS dose-response AUC, MCC13
[20] = NPC library, qHTS dose-response AUC, WAGA
[21] = NPC library, mean AUC of VP-MCC cell lines
[22] = NPC library, therapeutic window: Control avg AUC minus VP-MCC avg AUC
[23] = NPC library, 8-point DRC, control cell line
[24] = NPC library, 8-point DRC, area under dose-response curve

What does the source list for CCCCCCCCCCCCCCCC[N+](C)(C)CC [Ethylhexadecyldimethylammonium bromide]?
VN-MCC_Avg_AUC [1, 6]: 431.999; Control-VN-MCC [1, 7]: -72.525; HEK293T_AUC (HEK293T cells; [8]): 340.309; MCC_Avg_AUC [2, 9]: 342.577; Control_Avg_AUC [3, 10]: 359.474; NIH3T3_AUC (NIH-3T3 cells; [11]): 447.34; MKL1_AUC (MKL-1 cells (VP-MCC); [12]): 275.727; Area under the dose-response curve (AUC) MKL-1 Replicate 1 (MKL-1 cells (VP-MCC); follow-up screen, MKL-1, replicate 1): 317.9; Area under the dose-response curve (AUC) MKL-1 Replicate 2 (MKL-1 cells (VP-MCC); follow-up screen, MKL-1, replicate 2): 305.9; Area under the dose-response curve (AUC) MKL-1 Replicate 3 (MKL-1 cells (VP-MCC); follow-up screen, MKL-1, replicate 3): 330.7; MCC26_AUC (MCC26 cells (VN-MCC); [13]): 497.964; Area under the dose-response curve (AUC) MCC26 Replicate 1 (MCC26 cells (VN-MCC); follow-up screen, MCC26, replicate 1): 420.1; Area under the dose-response curve (AUC) MCC26 Replicate 2 (MCC26 cells (VN-MCC); follow-up screen, MCC26, replicate 2): 377.6; Area under the dose-response curve (AUC) MCC26 Replicate 3 (MCC26 cells (VN-MCC); follow-up screen, MCC26, replicate 3): 430.8; UISO_AUC (UISO cells (VN-MCC); [14]): 345.634; Area under the dose-response curve (AUC) UISO Replicate 1 (UISO cells (VN-MCC); follow-up screen, UISO, replicate 1): 324.1; Area under the dose-response curve (AUC) UISO Replicate 2 (UISO cells (VN-MCC); follow-up screen, UISO, replicate 2): 364.3; Area under the dose-response curve (AUC) UISO Replicate 3 (UISO cells (VN-MCC); follow-up screen, UISO, replicate 3): 313.9; HACAT_AUC (HACAT cells; [15]): 288.244; MKL2_AUC (MKL-2 cells (VP-MCC); [16]): 235.245; Area under the dose-response curve (AUC) MKL-2 Replicate 1 (MKL-2 cells (VP-MCC); follow-up screen, MKL-2, replicate 1): 333.8; Area under the dose-response curve (AUC) MKL-2 Replicate 2 (MKL-2 cells (VP-MCC); follow-up screen, MKL-2, replicate 2): 320.4; Area under the dose-response curve (AUC) MKL-2 Replicate 3 (MKL-2 cells (VP-MCC); follow-up screen, MKL-2, replicate 3): 334.2; Control-MCC [4, 17]: 16.8967; CRL7250_AUC (CRL-7250 cells; [18]): 362.003; MCC13_AUC (MCC13 cells (VN-MCC); [19]): 452.398; Area under the dose-response curve (AUC) MCC13 Replicate 1 (MCC13 cells (VN-MCC); follow-up screen, MCC13, replicate 1): 444.8; Area under the dose-response curve (AUC) MCC13 Replicate 2 (MCC13 cells (VN-MCC); follow-up screen, MCC13, replicate 2): 473.1; Area under the dose-response curve (AUC) MCC13 Replicate 3 (MCC13 cells (VN-MCC); follow-up screen, MCC13, replicate 3): 416.6; WAGA_AUC (WAGA cells (VP-MCC); [20]): 248.495; Area under the dose-response curve (AUC) WAGA Replicate 1 (WAGA cells (VP-MCC); follow-up screen, WAGA, replicate 1): 383.4; Area under the dose-response curve (AUC) WAGA Replicate 2 (WAGA cells (VP-MCC); follow-up screen, WAGA, replicate 2): 363.0; Area under the dose-response curve (AUC) WAGA Replicate 3 (WAGA cells (VP-MCC); follow-up screen, WAGA, replicate 3): 382.5; VP-MCC_Avg_AUC [5, 21]: 253.156; Control-VP-MCC [5, 22]: 106.318

Which VN-MCC_Avg_AUC [1, 6] does the source give for Cn1c(=O)c2c(ncn2CCO)n(C)c1=O [Etofylline] here?
The VN-MCC_Avg_AUC was 441.93.

And the Control-VN-MCC [1, 7]?
The Control-VN-MCC was 21.1816.

What about the HEK293T_AUC (HEK293T cells; [8]) of the same compound?
Its HEK293T_AUC is 445.08.

And the MCC_Avg_AUC [2, 9]?
Its MCC_Avg_AUC is 408.136.

And the Control_Avg_AUC [3, 10]?
Its Control_Avg_AUC is 463.112.

What about the NIH3T3_AUC (NIH-3T3 cells; [11]) of the same compound?
Its NIH3T3_AUC is 458.11.

And the MKL1_AUC (MKL-1 cells (VP-MCC); [12])?
Its MKL1_AUC is 387.045.

And the MCC26_AUC (MCC26 cells (VN-MCC); [13])?
Its MCC26_AUC is 435.802.

And the UISO_AUC (UISO cells (VN-MCC); [14])?
Its UISO_AUC is 431.565.

And the HACAT_AUC (HACAT cells; [15])?
The HACAT_AUC was 491.237.

And the MKL2_AUC (MKL-2 cells (VP-MCC); [16])?
The MKL2_AUC was 336.333.

And the Control-MCC [4, 17]?
The Control-MCC was 54.9761.

And the CRL7250_AUC (CRL-7250 cells; [18])?
The CRL7250_AUC was 458.019.

And the MCC13_AUC (MCC13 cells (VN-MCC); [19])?
The MCC13_AUC was 458.423.

And the WAGA_AUC (WAGA cells (VP-MCC); [20])?
The WAGA_AUC was 399.645.

And the VP-MCC_Avg_AUC [5, 21]?
The VP-MCC_Avg_AUC was 374.341.

What about the Control-VP-MCC [5, 22] of the same compound?
The Control-VP-MCC was 88.7707.

For CC(Cc1ccccc1)NCCn1cnc2c1c(=O)n(C)c(=O)n2C (centres unmarked) [Fenethylline hydrochloride], which Control-VN-MCC [1] is on record?
The Control-VN-MCC was 53.8023.

And the VN-MCC_Avg_AUC [1]?
The VN-MCC_Avg_AUC was 432.93 and 432.931.

And the HEK293T_AUC (HEK293T cells)?
Its HEK293T_AUC is 471.885.

What about the MCC_Avg_AUC [2] of the same compound?
The MCC_Avg_AUC was 429.34.

And the Control_Avg_AUC [3]?
Its Control_Avg_AUC is 486.733.

And the NIH3T3_AUC (NIH-3T3 cells)?
The NIH3T3_AUC was 480.657.

What about the MKL1_AUC (MKL-1 cells (VP-MCC)) of the same compound?
Its MKL1_AUC is 406.458.

And the MCC26_AUC (MCC26 cells (VN-MCC))?
The MCC26_AUC was 413.898.

What about the UISO_AUC (UISO cells (VN-MCC)) of the same compound?
The UISO_AUC was 437.462.

And the HACAT_AUC (HACAT cells)?
Its HACAT_AUC is 497.83.

What about the MKL2_AUC (MKL-2 cells (VP-MCC)) of the same compound?
Its MKL2_AUC is 435.518.

What about the Control-MCC [4] of the same compound?
Its Control-MCC is 57.3924.

What about the CRL7250_AUC (CRL-7250 cells) of the same compound?
Its CRL7250_AUC is 496.56.

And the MCC13_AUC (MCC13 cells (VN-MCC))?
The MCC13_AUC was 447.432.

What about the WAGA_AUC (WAGA cells (VP-MCC)) of the same compound?
The WAGA_AUC was 435.275.

What about the Control-VP-MCC [5] of the same compound?
Its Control-VP-MCC is 60.9825.

And the VP-MCC_Avg_AUC [5]?
The VP-MCC_Avg_AUC was 425.75.

Oc1ccc(C2CNCCc3c2cc(O)c(O)c3Cl)cc1 (centres unmarked) [Fenoldopam] was tested. Which Control-VN-MCC ([1]; NPC library, Control AUC minus VN-MCC AUC (therapeutic window)) did it give?
Its Control-VN-MCC is 50.8323.

What about the VN-MCC_Avg_AUC [1, 6] of the same compound?
The VN-MCC_Avg_AUC was 440.711.

What about the HEK293T_AUC (HEK293T cells; [23]) of the same compound?
Its HEK293T_AUC is 492.113.

And the MCC_Avg_AUC [2, 9]?
Its MCC_Avg_AUC is 444.271.

What about the Control_Avg_AUC [3, 10] of the same compound?
The Control_Avg_AUC was 491.543.

And the NIH3T3_AUC (NIH-3T3 cells; [23])?
Its NIH3T3_AUC is 489.56.

What about the MKL1_AUC (MKL-1 cells (VP-MCC); [24]) of the same compound?
The MKL1_AUC was 451.807.

And the MCC26_AUC (MCC26 cells (VN-MCC); [24])?
The MCC26_AUC was 437.226.

What about the UISO_AUC (UISO cells (VN-MCC); [24]) of the same compound?
Its UISO_AUC is 438.854.

What about the HACAT_AUC (HACAT cells; [23]) of the same compound?
The HACAT_AUC was 491.95.

And the MKL2_AUC (MKL-2 cells (VP-MCC); [24])?
Its MKL2_AUC is 452.751.

What about the Control-MCC ([4]; NPC library, Control AUC minus MCC AUC (therapeutic window)) of the same compound?
Its Control-MCC is 47.2727.

And the CRL7250_AUC (CRL-7250 cells; [23])?
Its CRL7250_AUC is 492.55.

What about the MCC13_AUC (MCC13 cells (VN-MCC); [24]) of the same compound?
The MCC13_AUC was 446.053.

What about the WAGA_AUC (WAGA cells (VP-MCC); [24]) of the same compound?
The WAGA_AUC was 438.933.

And the Control-VP-MCC ([5]; NPC library, Control AUC minus VP-MCC AUC (therapeutic window))?
The Control-VP-MCC was 43.713.

What about the VP-MCC_Avg_AUC [5, 21] of the same compound?
Its VP-MCC_Avg_AUC is 447.83.
